Test results from patent US8822174B1, “Sterilization indicator for oxidative sterilants” (priority 2013, dated 2014).
Several values for one entry are separate records, joined by “and”; a condition that tells them apart may be missing. Equal entries are not always repeated.

System: Geobacillus stearothermophilus spores
Type: cell-based
Procedure: Geobacillus stearothermophilus spores are resuspended in potassium ferricyanide concentrations ranging from 0.5 μg/ml to 200 mg/ml in samples having a spore concentration of 1E8 per ml (1×10^8 spores per milliliter). SCBI vials are inoculated with 20 μl (≈2 million spores) of each of the sample suspensions and air dried at least overnight. The SCBIs are then capped and run in a VHP BIER vessel for the times shown in Table 1 below using a 0.8 g injection of 59% hydrogen peroxide.
Geobacillus stearothermophilus spores are resuspended in Prussian blue concentrations ranging from 0.5 μg/ml to 123 mg/ml at a spore concentration of 1E8 per ml. SCBI vials are inoculated with 20 μl (≈2 million spores) of the appropriate suspension and air dried at least overnight. The SCBIs are then capped and run in a VHF) BIER vessel for the times listed below using a 0.8 g injection of 59% hydrogen peroxide.

[C-]#N.[C-]#N.[C-]#N.[C-]#N.[C-]#N.[C-]#N.[C-]#N.[C-]#N.[C-]#N.[C-]#N.[C-]#N.[C-]#N.[C-]#N.[C-]#N.[C-]#N.[C-]#N.[C-]#N.[C-]#N.[Fe+2].[Fe+2].[Fe+2].[Fe+3].[Fe+3].[Fe+3].[Fe+3] [Prussian Blue, Prussian blue]
Killed/Total Samples: 0/10 and 8/10 and 3/10 and 7/10* and 1/10* and 6/10* and 2/10* and 10/10
grow out results compared with potassium ferricyanide (Table 1): comparable results
